One data set deals with T1, RORC2-LBD (Homo sapiens, UniProt P51449).
T1 sequence (P51449 269-508 limits assumed): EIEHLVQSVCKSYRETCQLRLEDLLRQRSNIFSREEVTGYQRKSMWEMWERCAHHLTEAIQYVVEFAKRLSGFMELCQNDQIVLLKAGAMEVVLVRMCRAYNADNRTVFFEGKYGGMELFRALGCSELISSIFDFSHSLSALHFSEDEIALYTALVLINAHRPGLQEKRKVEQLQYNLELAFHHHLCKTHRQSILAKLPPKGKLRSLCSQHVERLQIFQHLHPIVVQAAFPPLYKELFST
Description: In vitro test for inhibitory activity on RORγ: TR-FRET screening (RORC2-LBD / SRC1 peptide interaction). In kind it is biochemical. As to conditions: Value of the concentration required for 50% inhibition (EC50) of RORγ, 15 nM RORc-LBD, 200 nM SRC1 peptide, 4° C. overnight. From the text: The compounds of the present application was able to regulate (inhibit) the bioactivity of the nuclear receptor RORγ, and the strength of this regulatory (inhibitory) effect could be evaluated by a TR-FRET (time-resolved fluorescence resonance energy transfer) screening system. Nuclear receptor cofactors (co-activators and co-inhibitors) could regulate the transcription of a target gene by the interaction with nuclear receptors. If a ligand (test compound) affected the interaction between the nuclear receptors and the cofactors, this ligand (test compound) was able to regulate the transcription of the corresponding gene.
This method adopted the TR-FRET (time-resolved fluorescence resonance energy transfer) technique to determine the ability of a compound to regulate the interaction between the polypeptide indirectly bound to APC […] (namely, APC was indirectly bound to the polypeptide by binding to Streptavidin and biotin) and RORC2-LBD linked to a europium (Eu)-labeled anti-His antibody (Perkin Elmer #AD0111). In the absence of the compound, RORC2 could bind to an APC-modified polypeptide. If the compound was an agonist, it could enhance the interaction between RORC2 and the APC-modified polypeptide after binding to RORC2. On the contrary, if the compound was an inverse agonist, it could inhibit the interaction between RORC2 and the APC-modified polypeptide after binding to RORC2. When the APC-modified polypeptide and the Eu-labeled anti-His antibody-RORC2-LBD complex approached to each other and the distance therebetween was within a certain distance, energy transfer could occur and a TR-FRET signal was generated.
A buffer solution comprising 50 mM Tris (pH 7.0), 50 mM KCl, 1 mM Na-EDTA, 0.01% BSA (0.1 mg/ml), and 0.1 mM DTT was freshly formulated prior to the experiment.
2.3 Formulation of a RORγ-containing working solution. Prior to the test, a working solution containing 1.67 nM Eu/anti-His and 0.75 μl/well of SF9 cell lysate was freshly formulated, and was placed on ice before use. 25.05 nM of RORγ was added to the working solution.
2.5 Ten concentration gradients were set for each test compound, and duplicate wells were set for each concentration. The formulating method of the test compounds was as follows: […]
2) 15 μl of the RORγ-containing working solution was added to columns 1 to 21 of the tested 384-well plate (the final concentration of Eu/anti-His was 1 nM, and the final concentration of RORg was 15 nM); and […]
9) data analysis was performed using the ratio of the numerical value detected at an emission wavelength of 665 nm to the numerical value detected at an emission wavelength of 615 nm. […]
(TR-FRET usually uses a lanthanide donor and a delayed reading to cut background.)

Data set [1] concerns MOG35-55-induced experimental autoimmune encephalomyelitis (EAE). Description: In vivo pharmacodynamic research on MOG35-55-induced experimental autoimmune encephalomyelitis (EAE) in mice. As to conditions: G4, 75 mg/kg p.o. b.i.d. The procedure: The day of immunization was recorded as day 0, and the subsequent days were marked sequentially. Mice were anesthetized with isoflurane, and 100 μl of the emulsion was administered via subcutaneous injection at three sites (the middle part between shoulder and back, and two sides of the tail that were close to the groin), namely, 33 μl of the emulsion for each site. 0 hour and 48 hours after the injection of the emulsion, 200 ng (i.e. 200 μl) of the PTX solution was intraperitoneal injected. Mice in the normal group were not required to be immunized.
After the immunization on day 0, the immunized mice were randomly divided into 3 groups with 10 mice in each group according to the body weights except for the mice in the normal group, the details were shown in Table 1. FTY720 served as a positive drug, and a dose of […] was an effective dose commonly used in the EAE model.
The first group was normal mice without any treatment; vehicle was administered to the second group; FTY720 was administered to the third group at a dose of 0.5 mg/kg once a day; and the compound of Example 1 was administered to the fourth group at a dose of 75 mg/kg twice a day. The administration lasted for 25 days in total. The volume of intragastric administration was 10 ml/kg.
The day when animals were immunized was day 0. Animal body weights were recorded three times a week from day 0 to day 10, and the body weights and clinical scores of the animals were closely observed and recorded daily from day 11.
The experimental data was expressed as mean±standard error of mean (Mean±SEM).
The area under the curve of clinical scores over time (i.e. “AUC of clinical scores” or “area under the curve of clinical scores”) was calculated by analyzing the curve of clinical scores for each animal in each group, and the inhibition rates of the remaining groups (G1, G3, and G4) relative to G2 (solvent control group) were calculated by the mean AUC of clinical scores among groups.

This is an account of results in patent publication US11466024B2, “Bicylic compound acting as an inhibitor” (CHIA TAI TIANQING PHARMACEUTICAL GROUP CO., LTD., priority 2017, dated 2022).

Structures are written as SMILES.

Broadly, the EC50 is the concentration at which the effect is half-maximal. A high value points to a less potent agent.

In the case of `CCS(=O)(=O)c1ccc(CNC(=O)c2cc3c(s2)C(C(C)C)N(C[C@H]2CC[C@H](C(F)(F)F)CC2)C3)nc1` (single isomer, unassigned) [Example 1], the EC50 at RORC2-LBD was < 100 nM. Further, in data set [1] (25 days, FIG. 1), the “clinical scores of EAE mice” value was “significantly reduced”. The “inhibition rate of AUC of clinical scores relative to solvent control group” value in data set [1] (25 days, p<0.0001, FIG. 2) was 93.2%. Moreover, the “morbidity of EAE” value in data set [1] (at day 19, stable till the end of the experiment, FIG. 3) came to 20%. Moreover, the “body weights compared among groups” value in data set [1] (from the beginning to end, FIG. 4) is reported as “the highest”. Further, the body weight changes result in data set [1] (significantly different from solvent control group, FIG. 4) is “kept increasing”.
